Like-named read-outs stand apart in the source and are kept apart here.
Tests used:
[1] = system: HCMV US3-6-EGFP-HCMV-AD169 strain; test: In vitro inhibitory (antiviral) activity against HCMV, GFP reporter in MRC5 cells; type: cell-based, Human cytomegalovirus (HCMV); conditions: Human betaherpesvirus 5, AD169, MRC5, 96 h, read-out: HCMV Antiviral EC50 range
Procedure, shortened: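 MRC5 cells were infected with GFP-reporter virus (MOI=0.1) alongside compounds (8 points, 3-fold dilutions, duplicate; top 40 μM test compounds, 100 μM ganciclovir; 0.5% DMSO final) for 4 days at 37 °C. GFP fluorescence inhibition, normalized to virus and cell controls, gave EC50; viability gave CC50.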

[2] = Cytotoxicity in MRC5 cells without virus infection (CCK8); type: cell-based; conditions: human
[3] = target: T1, HCMV DNA polymerase (UL54) (Human cytomegalovirus, UniProt P08546); test: HCMV DNA polymerase enzyme inhibition assay (ProFoldin, fluorescence); type: biochemical; conditions: 37° C., duplicate, max 40 μM
T1 construct: 6His (C); made in house; host or cells: Sf9 insect cells (baculovirus, pFastBac)

hERG potassium channel = target: T2, hERG potassium channel (Homo sapiens, UniProt Q12809); test: Inhibition of hERG potassium channel, automated patch clamp (SyncroPatch 384PE) in CHO cells; type: cell-based
T2 construct: host or cells: CHO cells stably expressing hERG

[4] = CHO cells stably expressing hERG, room temperature, 0.494-40.00 μM, read-out: CHO-hERG Activity Range

T2 sequence (Q12809 whole entry): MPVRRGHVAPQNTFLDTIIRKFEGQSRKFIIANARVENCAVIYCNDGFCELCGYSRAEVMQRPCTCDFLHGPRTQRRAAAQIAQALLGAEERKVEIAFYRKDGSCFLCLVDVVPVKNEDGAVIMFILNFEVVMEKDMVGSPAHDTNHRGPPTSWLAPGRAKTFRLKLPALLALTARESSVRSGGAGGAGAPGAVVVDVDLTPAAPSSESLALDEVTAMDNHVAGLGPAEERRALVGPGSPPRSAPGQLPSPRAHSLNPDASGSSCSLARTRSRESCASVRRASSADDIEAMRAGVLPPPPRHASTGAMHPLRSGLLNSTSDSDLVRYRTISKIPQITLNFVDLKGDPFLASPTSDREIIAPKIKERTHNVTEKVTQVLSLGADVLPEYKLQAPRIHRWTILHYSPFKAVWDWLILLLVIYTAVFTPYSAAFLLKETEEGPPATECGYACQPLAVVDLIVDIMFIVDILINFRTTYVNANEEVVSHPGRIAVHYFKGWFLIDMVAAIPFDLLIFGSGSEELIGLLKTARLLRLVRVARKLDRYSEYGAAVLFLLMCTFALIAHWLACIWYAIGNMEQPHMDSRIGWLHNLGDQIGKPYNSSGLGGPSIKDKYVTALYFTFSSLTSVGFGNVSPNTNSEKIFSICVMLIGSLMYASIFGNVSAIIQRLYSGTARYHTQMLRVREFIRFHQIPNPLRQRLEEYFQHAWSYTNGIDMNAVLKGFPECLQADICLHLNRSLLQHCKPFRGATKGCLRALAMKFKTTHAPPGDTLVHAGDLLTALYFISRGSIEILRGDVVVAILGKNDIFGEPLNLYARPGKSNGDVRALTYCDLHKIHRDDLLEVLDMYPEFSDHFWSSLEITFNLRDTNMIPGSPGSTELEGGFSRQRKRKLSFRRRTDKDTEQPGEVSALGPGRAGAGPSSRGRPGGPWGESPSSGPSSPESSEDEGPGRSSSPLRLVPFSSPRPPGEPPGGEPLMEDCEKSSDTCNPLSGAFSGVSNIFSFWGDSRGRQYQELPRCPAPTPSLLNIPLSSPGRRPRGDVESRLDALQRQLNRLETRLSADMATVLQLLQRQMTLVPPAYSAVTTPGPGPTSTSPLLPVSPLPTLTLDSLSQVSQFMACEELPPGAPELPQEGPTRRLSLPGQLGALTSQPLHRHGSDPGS
T1 sequence (P08546 whole entry): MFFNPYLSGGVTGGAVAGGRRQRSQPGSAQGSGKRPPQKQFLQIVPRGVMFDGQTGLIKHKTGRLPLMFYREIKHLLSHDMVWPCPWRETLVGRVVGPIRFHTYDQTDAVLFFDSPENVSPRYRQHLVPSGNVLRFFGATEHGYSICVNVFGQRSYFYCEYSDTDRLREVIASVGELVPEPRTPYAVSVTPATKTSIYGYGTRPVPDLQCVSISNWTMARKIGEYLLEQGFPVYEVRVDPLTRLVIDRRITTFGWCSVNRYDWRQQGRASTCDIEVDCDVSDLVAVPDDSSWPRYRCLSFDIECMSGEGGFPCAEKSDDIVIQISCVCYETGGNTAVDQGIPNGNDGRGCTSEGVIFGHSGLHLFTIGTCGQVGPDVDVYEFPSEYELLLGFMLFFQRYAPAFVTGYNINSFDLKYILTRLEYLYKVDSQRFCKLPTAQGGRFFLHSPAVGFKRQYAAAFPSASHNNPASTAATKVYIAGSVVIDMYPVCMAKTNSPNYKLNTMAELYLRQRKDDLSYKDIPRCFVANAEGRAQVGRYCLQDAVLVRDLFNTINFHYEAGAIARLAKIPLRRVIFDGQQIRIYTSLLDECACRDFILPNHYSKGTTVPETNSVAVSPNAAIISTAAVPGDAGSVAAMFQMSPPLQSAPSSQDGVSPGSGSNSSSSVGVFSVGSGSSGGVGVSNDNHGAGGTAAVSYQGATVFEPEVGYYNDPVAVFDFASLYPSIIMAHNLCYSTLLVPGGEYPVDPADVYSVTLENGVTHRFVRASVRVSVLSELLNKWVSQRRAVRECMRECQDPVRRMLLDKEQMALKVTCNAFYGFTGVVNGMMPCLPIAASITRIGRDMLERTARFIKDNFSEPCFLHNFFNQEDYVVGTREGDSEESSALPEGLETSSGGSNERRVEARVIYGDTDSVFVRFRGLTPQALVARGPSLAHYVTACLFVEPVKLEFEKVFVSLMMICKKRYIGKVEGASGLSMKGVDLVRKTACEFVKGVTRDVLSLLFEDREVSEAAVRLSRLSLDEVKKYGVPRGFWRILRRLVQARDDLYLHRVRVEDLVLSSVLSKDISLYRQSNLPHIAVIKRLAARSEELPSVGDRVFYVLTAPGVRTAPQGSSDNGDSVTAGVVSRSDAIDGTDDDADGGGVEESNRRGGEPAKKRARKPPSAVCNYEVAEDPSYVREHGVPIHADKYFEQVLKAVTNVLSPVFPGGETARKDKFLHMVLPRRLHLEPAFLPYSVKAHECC

Row | SMILES | EC50 [1] [µM] | CC50 at 4 days [2] [µM] | IC50 [3] [µM] | IC50 (hERG potassium channel; [4]) [µM] | IC50 (hERG potassium channel) [µM]
1 | CC1(F)CN(C(=O)Cn2c(=O)c(C(=O)NCc3ccc(Cl)cc3)cc3nc(N4CCN(CC(N)=O)C4=O)cnc32)C1 [Compound 40, 2-[3-(2-amino-2-oxoethyl)-2-oxoimidazolidin-1-yl]-N-[(4-chlorophenyl)methyl]-5-[2-(3-fluoro-3-methylazetidin-1-yl)-2-oxoethyl]-6-oxo-5,6-dihydropyrido[2,3-b]pyrazine-7-carboxamide] | > 1 | > 40 | < 1 | > 10 | 
2 | CC1(F)CN(C(=O)Cn2c(=O)c(C(=O)NCc3ccc(Cl)cc3)cc3nc(N4CC(=O)NC4=O)cnc32)C1 [Compound 41, N-[(4-chlorophenyl)methyl]-2-(2,4-dioxoimidazolidin-1-yl)-5-[2-(3-fluoro-3-methylazetidin-1-yl)-2-oxoethyl]-6-oxo-5,6-dihydropyrido[2,3-b]pyrazine-7-carboxamide] | > 1 | 23 | < 1 | > 10 | 
3 | CN(C)CCN1CCN(c2cnc3c(cc(C(=O)NCc4ccc(Cl)cc4)c(=O)n3CC(=O)N3CC(C)(F)C3)n2)C1=O [Compound 42, N-[(4-chlorophenyl)methyl]-2-{3-[2-(dimethylamino)ethyl]-2-oxoimidazolidin-1-yl}-5-[2-(3-fluoro-3-methylazetidin-1-yl)-2-oxoethyl]-6-oxo-5,6-dihydropyrido[2,3-b]pyrazine-7-carboxamide] | < 1 | > 40 | > 1 | > 10 | 
4 | CC1(C)CN(C(=O)Cn2c(=O)c(C(=O)NCc3ccc(Cl)cc3)cc3nc(N4CCN(C(C)(C)C(=O)O)C4=O)cnc32)C1 [Compound 43, 2-[3-(7-{[(4-chlorophenyl)methyl]carbamoyl}-5-[2-(3,3-dimethylazetidin-1-yl)-2-oxoethyl]-6-oxo-5,6-dihydropyrido[2,3-b]pyrazin-2-yl)-2-oxoimidazolidin-1-yl]-2-methylpropanoic acid] | < 1 | > 40 | < 1 | > 10 | 
5 | CC(C)(C(=O)O)N1CCN(c2cnc3c(cc(C(=O)NCc4ccc(Cl)cc4)c(=O)n3CC(=O)N3CC4(CC4)C3)n2)C1=O [Compound 44, 2-[3-(5-[2-(5-azaspiro[2.3]hexan-5-yl)-2-oxoethyl]-7-{[(4-chlorophenyl)methyl]carbamoyl}-6-oxo-5,6-dihydropyrido[2,3-b]pyrazin-2-yl)-2-oxoimidazolidin-1-yl]-2-methylpropanoic acid] | < 1 | > 40 | < 1 |  | > 10
6 | CC1(C)CN(C(=O)Cn2c(=O)c(C(=O)NCc3ccc(Cl)cc3)cc3cc(N4CCN(C(C)(C)C(=O)O)C4=O)cnc32)C1 [Compound 45, 2-(3-(6-{[(4-chlorophenyl)methyl]carbamoyl}-8-(2-(3,3-dimethylazetidin-1-yl)-2-oxoethyl)-7-oxo-7,8-dihydro-1,8-naphthyridin-3-yl)-2-oxoimidazolidin-1-yl)-2-methylpropanoic acid] | < 1 | > 40 | < 1 | > 10 | 
7 | CC(C(=O)O)N1CCN(c2cnc3c(cc(C(=O)NCc4ccc(Cl)cc4)c(=O)n3CC(=O)N3CC(C)(C)C3)n2)C1=O (stereo not shown) [Compound 46, 2-[3-(7-{[(4-chlorophenyl)methyl]carbamoyl}-5-[2-(3,3-dimethylazetidin-1-yl)-2-oxoethyl]-6-oxo-5,6-dihydropyrido[2,3-b]pyrazin-2-yl)-2-oxoimidazolidin-1-yl]propanoic acid] | < 1 | > 40 | < 1 | > 10 | 

Source: patent US20230136702A1, “Inhibitors of Human Herpesviruses” (The Governors of the University of Alberta, priority 2020, published 2023)
